From patent publication US7745001B2, “Synthesis of nanoassemblies containing luminescent quantum dots and magnetic nanoparticles” (University of New Orleans Research and Technology …, priority 2004, dated 2010)

Target: Concanavaline A (Con A) (Canavalia ensiformis, UniProt P02866)
Test: dextran-Con A binding (dissociation constant)
Description: The glyconanospheres of the present invention can contain dextran molecules (or could contain other polysaccharides) on their surface that interact strongly with carbohydrate binding proteins. These glyconanospheres can be used for real-time monitoring of protein carbohydrate interactions. The inventors in their studies of the present invention focused on lectins, which are sugar binding proteins. In particular the inventors worked with Concanavaline A (Con A) which binds glycosylic residues in carbohydrates with high affinity (the dissociation constant of dextran-Con A was found in studies of the present inventors to be about 1 nanomolar).

Substance: dextran
- Kd: ~1 nM
